The subject of experiment [1] is Wnt pathway (Sp5-Luc reporter, TCF/LEF binding sites) in SW480 colon carcinoma cells. Briefly: Screening assay for Wnt activity: Sp5-Luc reporter gene assay.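 As to all read-outs here: firefly luciferase luminescence read in stably transduced SW480 cells carrying the Sp5 promoter reporter with eight TCF/LEF sites, compounds given in 0.1% DMSO final.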 The class given is cell-based, human. The note with it: Homo sapiens; for EC50: Sp5-Luc reporter, SW480 cells, 36 to 48 hours; for inhibition at 10 µM: SW480, read-out: percent inhibition at 10 μM. (In general: A reporter such as luciferase makes a cellular process visible.)
Experimental: The screening assay for Wnt activity is described as follows.
Following incubation, 15 μl of BriteLite Plus luminescence reagent (Perkin Elmer) was added to each well of the 384-well assay plates. The plates were placed on an orbital shaker for 2 min and then luminescence was quantified using the Envision (Perkin Elmer) plate reader.

Experiment [2] concerns the target recombinant DYRK1A kinase (Homo sapiens (Human), UniProt Q13627). Briefly: DYRK1A kinase assay (Ser/Thr 18 peptide Z-lyte FRET).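 Also: Read-out is the coumarin to fluorescein emission ratio, referenced to unphosphorylated (0%) and phosphorylated (100%) Ser/Thr 18 peptide controls, values from dose-response curves by non-linear regression.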 The note with it: 30 μM ATP, 1 h room temperature. The class given is biochemical.
Experiment [3] concerns the target recombinant GSK3β kinase (Homo sapiens (Human), UniProt P49841). Briefly: GSK3β kinase assay (Ser/Thr 09 peptide Z-lyte FRET).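 Also: kinase activity read as coumarin to fluorescein emission ratio, 11-point threefold dilutions from 10 µM to 0.0003 µM in duplicate, unphosphorylated and phosphorylated peptide as 0% and 100% controls.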 The class given is biochemical. The note with it: 46 μM ATP, 1 h room temperature.
The test system of experiment [4] is Tau phosphorylation at Ser396 (pSer396). Briefly: Tau phosphorylation assay (pSer396 ELISA / western blot) in SH-SY5Y cells.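 Also: EC50 for reduction of Tau pSer396 in lysed cells, measured by colorimetric ELISA or chemiluminescent western blot, both using the same pSer396 antibody.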 The class given is cell-based, human. The note with it: Homo sapiens; SH-SY5Y cells, overnight (16-18 h) exposure; read-out: pSer396 Tau EC50.
Experiment [5] relates to SW480 colon carcinoma cells. Kind of experiment: Cell viability assay (CellTiter-Glo). The class given is cell-based, human. The note with it: Homo sapiens; for EC50: 96 h, SW480 cells, CellTiter-Glo, four days incubation; for inhibition at 10 µM: SW480, read-out: percent inhibition at 10 μM.
The subject of experiment [6] is α-smooth muscle actin (αSMA) positive LL29 cells. Kind of experiment: Inhibition of fibrotic process: αSMA in TGF-β1 treated primary human fibroblasts from IPF patients.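 As to all read-outs here: controls were TGF-β1 stimulated wells with DMSO vehicle (positive) and cells given DMSO alone (negative), cultured in F12 medium with 1% fetal bovine serum.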 The class given is cell-based. The note with it: Homo sapiens, Fibroblast; for EC50: 96 h, Table 8, LL29 fibroblasts from IPF patients, TGF-β1 20 ng/mL, 4 days, dose-response 10 μM to 0.94 nM; for inhibition at 10 µM: read-out: percent value in parentheses beside EC50 >10 μM.

Experiment [7] relates to IL-6. Kind of experiment: IL-6 inhibition in LPS-stimulated human peripheral blood mononuclear cells (HTRF).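 As to all read-outs here: IL-6 detected by HTRF with an XL665- and Cryptate-labelled anti-IL-6 antibody pair, samples run in duplicate, EC50 obtained from a four-parameter Levenberg-Marquardt curve fit.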 The note with it: Homo sapiens, PBMC; for EC50: Table 9, huPBMCs, LPS 50 ng/mL, 22 hours, dose-response starting from 10 μM; for inhibition at 10 µM: read-out: percent value in parentheses beside EC50 >10 μM. The class given is cell-based.
Experimental: After 22 hour incubation, a mixture of anti-IL6 XL665 and anti-IL-6 Cryptate diluted in reconstitution buffer (Catalog #62IL6PEC, Cisbio Inc., Bedford, Mass.) was added to each well. […] All samples were processed in duplicate. […] EC50 was determined using software generated by Dotmatics Limited (Windhill Bishops Stortford Herts, UK) using the Levenberg-Marquardt 4 parameter fitting procedure with finite different gradients.

Some results are limits rather than exact numbers.

Sequence of recombinant GSK3β kinase (P49841 whole entry): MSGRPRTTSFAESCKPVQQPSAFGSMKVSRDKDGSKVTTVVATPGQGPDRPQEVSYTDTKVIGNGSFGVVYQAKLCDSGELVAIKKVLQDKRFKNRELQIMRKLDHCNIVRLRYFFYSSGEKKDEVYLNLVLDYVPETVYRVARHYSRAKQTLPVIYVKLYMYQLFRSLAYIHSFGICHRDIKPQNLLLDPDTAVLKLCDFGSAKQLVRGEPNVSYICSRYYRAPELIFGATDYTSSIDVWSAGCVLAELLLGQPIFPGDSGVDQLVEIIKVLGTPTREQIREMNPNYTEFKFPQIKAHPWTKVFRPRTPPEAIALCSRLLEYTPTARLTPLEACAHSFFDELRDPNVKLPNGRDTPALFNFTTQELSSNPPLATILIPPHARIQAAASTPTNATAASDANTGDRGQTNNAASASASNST

Take `CN1CCC(N2CCC(C(=O)Nc3cc4cc(-c5cnco5)ccc4cn3)CC2)CC1` [Compound 978, 1′-Methyl-N-(6-(oxazol-5-yl)isoquinolin-3-yl)-[1,4′-bipiperidine]-4-carboxamide]: the concentration giving a half-maximal response (EC50) (as a rule, the concentration at which the effect is half-maximal) in experiment [1] is 2220 nM; in experiment [2] it was 3.9 nM; in experiment [3], 220 nM; in experiment [4] it was 274 nM; in experiment [5], 1580 nM; in experiment [6] it was 722 nM. The molecule further yielded a half-maximal effective concentration (EC50) in experiment [7] of 3360 nM.

On to `O=C(Nc1cc2cc(-c3cnco3)ccc2cn1)[C@H]1CC[C@@H](N2CCOCC2)CC1` [Compound 979, cis-4-Morpholino-N-(6-(oxazol-5-yl)isoquinolin-3-yl)cyclohexane-1-carboxamide], for which the EC50 was 4090 nM in experiment [1]; 10 nM in experiment [2]; 791 nM in experiment [3]; 569 nM in experiment [4]; 2220 nM in experiment [5]; 1030 nM in experiment [6]. In experiment [7], this molecule displayed a concentration giving a half-maximal response (EC50) of 4300 nM.

As for `CN(CC(=O)Nc1cc2cc(-c3cnco3)ccc2cn1)C1CCC1` [Compound 980, 2-(Cyclobutyl(methyl)amino)-N-(6-(oxazol-5-yl)isoquinolin-3-yl)acetamide], the inhibition at 10 µM is 40.5% in experiment [1] and 40.3% in experiment [6]. Further, the EC50 in experiment [1] is > 10000 nM; in experiment [2], 19.1 nM; in experiment [3], 389 nM; in experiment [4], 2100 nM; in experiment [5] it was 5740 nM; in experiment [6], > 10000 nM. In experiment [7], the EC50 turned out to be 3680 nM.

With `O=C(CN1CCCC1)Nc1cc2cc(-c3cnco3)ccc2cn1` [Compound 981, N-(6-(Oxazol-5-yl)isoquinolin-3-yl)-2-(pyrrolidin-1-yl)acetamide], the EC50 in experiment [1] was determined as 1080 nM; in experiment [2] it was 13.7 nM; in experiment [3], 141 nM; in experiment [4] it was 1100 nM; in experiment [5], 546 nM; in experiment [6], 605 nM. The EC50 in experiment [7] was 1100 nM.

With `C[C@@H]1CCCN1CC(=O)Nc1cc2cc(-c3cnco3)ccc2cn1` [Compound 982, (R)-2-(2-Methylpyrrolidin-1-yl)-N-(6-(oxazol-5-yl)isoquinolin-3-yl) acetamide], the EC50 in experiment [1] is 2710 nM; in experiment [2], 19.2 nM; in experiment [3] it was 265 nM; in experiment [4], 1100 nM; in experiment [5] it was 1210 nM; in experiment [6] it was 767 nM. In experiment [7], this molecule registered an EC50 of 2790 nM.

Turning to `CN1CCN(CC(=O)Nc2cc3cc(-c4cnco4)ccc3cn2)CC1` [Compound 983, 2-(4-Methylpiperazin-1-yl)-N-(6-(oxazol-5-yl)isoquinolin-3-yl)acetamide], the EC50 is 5530 nM in experiment [1]; 22.3 nM in experiment [2]; 303 nM in experiment [3]; 1500 nM in experiment [4]; 4620 nM in experiment [5]; 679 nM in experiment [6]. Also, the EC50 in experiment [7] is > 10000 nM. For the same molecule, the inhibition at 10 µM in experiment [7] stood at 9.1%.

For the molecule `Cn1ncc(-c2ccc3cnc(NC(=O)C4CCOCC4)cc3c2)c1CO` [Compound 984, N-(6-(5-(Hydroxymethyl)-1-methyl-1H-pyrazol-4-yl)isoquinolin-3-yl) tetrahydro-2H-pyran-4-carboxamide], the concentration for a half-maximal effect (EC50) was 2990 nM in experiment [1]; 5.5 nM in experiment [2]; 236 nM in experiment [3]; 2100 nM in experiment [4]; 3130 nM in experiment [5]; 1240 nM in experiment [6]. For the same molecule, the response in experiment [7] was half-maximal at 8760 nM (EC50).

As to `CN1CCC(C(=O)Nc2cc3cc(-c4cnn(C)c4CO)ccc3cn2)CC1` [Compound 985, N-(6-(5-(Hydroxymethyl)-1-methyl-1H-pyrazol-4-yl)isoquinolin-3-yl)-1-methylpiperidine-4-carboxamide], the 50% effective concentration (EC50) in experiment [1] was 1160 nM; in experiment [2] it was 4.1 nM; in experiment [3], 283 nM; in experiment [4], 3200 nM; in experiment [5], 1720 nM; in experiment [6], > 10000 nM. A half-maximal effect in experiment [7] (EC50) was put at 3890 nM. For the same molecule, the inhibition at 10 µM in experiment [6] amounted to 38%.

For the molecule `O=C(Nc1cc2cc(-c3cnc4n3CCNC4)ccc2cn1)C1CC(F)(F)C1` [Compound 986, 3,3-Difluoro-N-(6-(5,6,7,8-tetrahydroimidazo[1,2-a]pyrazin-3-yl)isoquinolin-3-yl)cyclobutane-1-carboxamide], the half-maximal effective concentration (EC50) in experiment [1] amounted to 1380 nM; in experiment [2] it was 11 nM; in experiment [3], 21 nM; in experiment [4] it was 387 nM; in experiment [5] it was 3300 nM; in experiment [6], 158 nM. The 50% effective concentration (EC50) in experiment [7] was > 10000 nM. The inhibition at 10 µM in experiment [7] turned out to be 13.4%.

As for `O=C(Nc1cc2cc(-c3cnc4n3CCNC4)ccc2cn1)[C@H]1CCCN1` [Compound 987, (R)—N-(6-(5,6,7,8-Tetrahydroimidazo[1,2-a]pyrazin-3-yl)isoquinolin-3-yl) pyrrolidine-2-carboxamide], the inhibition at 10 µM in experiment [1] amounted to 10.7%; in experiment [5], 10.6%; in experiment [6], 42%; in experiment [7], 6.5%. In addition, the half-maximal effective concentration (EC50) in experiment [1] is > 10000 nM; in experiment [2] it was 42.8 nM; in experiment [3], 2320 nM; in experiment [4], > 10000 nM; in experiment [5], > 10000 nM; in experiment [6], > 10000 nM. Also, the concentration giving a half-maximal response (EC50) in experiment [7] was > 10000 nM.

Take `O=C(Nc1cc2cc(-c3cnc4n3CCNC4)ccc2cn1)[C@@H]1CCCNC1` [Compound 988, (R)—N-(6-(5,6,7,8-Tetrahydroimidazo[1,2-a]pyrazin-3-yl)isoquinolin-3-yl) piperidine-3-carboxamide]: the inhibition at 10 µM in experiment [1] worked out at 11.1%; in experiment [5], 18%; in experiment [6] it was 46.5%; in experiment [7] it was 8.8%. Further, the EC50 in experiment [1] was > 10000 nM; in experiment [2], 24.9 nM; in experiment [3] it was 1090 nM; in experiment [4] it was > 10000 nM; in experiment [5], > 10000 nM; in experiment [6], > 10000 nM. Further, the concentration for a half-maximal effect (EC50) in experiment [7] was > 10000 nM.

For `CN1CCC(C(=O)Nc2cc3cc(-c4cnc5n4CCNC5)ccc3cn2)CC1` [Compound 989, 1-Methyl-N-(6-(5,6,7,8-tetrahydroimidazo[1,2-a]pyrazin-3-yl)isoquinolin-3-yl)piperidine-4-carboxamide], the EC50 in experiment [1] is 4320 nM; in experiment [2] it was 16.2 nM; in experiment [3] it was 298 nM; in experiment [4], > 10000 nM; in experiment [5], > 10000 nM; in experiment [6], 4420 nM. Besides, the concentration giving a half-maximal response (EC50) in experiment [7] is > 10000 nM. Also, the values for the inhibition at 10 µM in experiment [5] and in experiment [7] were 36.4% and 12.5%, respectively.

With `O=C(Nc1cc2cc(-c3cnc4n3CCNC4)ccc2cn1)C1CCN(CC2(C(F)(F)F)CC2)CC1` [Compound 990, N-(6-(5,6,7,8-Tetrahydroimidazo[1,2-a]pyrazin-3-yl)isoquinolin-3-yl)-1-((1-(trifluoromethyl)cyclopropyl)methyl)piperidine-4-carboxamide], the EC50 in experiment [1] was found to be 2860 nM; in experiment [2], 21.3 nM; in experiment [3] it was 100 nM; in experiment [4] it was 1800 nM; in experiment [5] it was 3550 nM; in experiment [6], 782 nM. For the same molecule, the EC50 in experiment [7] is > 10000 nM. In addition, the inhibition at 10 µM in experiment [7] was found to be 0%.

Turning to `O=C(Nc1cc2cc(-c3cnc4n3CCNC4)ccc2cn1)C1CCN(C(=O)c2ccccc2)CC1` [Compound 991, 1-Benzoyl-N-(6-(5,6,7,8-tetrahydroimidazo[1,2-a]pyrazin-3-yl)isoquinolin-3-yl)piperidine-4-carboxamide], the EC50 in experiment [1] came to 1700 nM; in experiment [2], 3.3 nM; in experiment [3], 29 nM; in experiment [4] it was 10000 nM; in experiment [5], 3960 nM; in experiment [6] it was 2680 nM. The molecule further registered a concentration for a half-maximal effect (EC50) in experiment [7] of 3240 nM.

Turning to `Cn1ncc(-c2ccc3cnc(NC(=O)C4CC5(C4)CN(C(=O)OC(C)(C)C)C5)cc3c2)c1CN1CCCCC1` [Compound 992, tert-Butyl 6-((6-(1-methyl-5-(piperidin-1-ylmethyl)-1H-pyrazol-4-yl)isoquinolin-3-yl)carbamoyl)-2-azaspiro[3.3]heptane-2-carboxylate], the EC50 in experiment [1] came to 3210 nM; in experiment [2], 25.3 nM; in experiment [3] it was 14 nM; in experiment [4], 350 nM; in experiment [5], 5600 nM; in experiment [6], 2970 nM. Moreover, the EC50 in experiment [7] is > 10000 nM. Moreover, the inhibition at 10 µM in experiment [7] was 2.6%.

Take `Cc1ncc(-c2ccc3cnc(NC(=O)CN4CCCC4)cc3c2)s1` [Compound 993, N-(6-(2-Methylthiazol-5-yl)isoquinolin-3-yl)-2-(pyrrolidin-1-yl)acetamide]: the EC50 in experiment [1] came to 7970 nM; in experiment [2], 14.7 nM; in experiment [3] it was 87 nM; in experiment [4] it was 702 nM; in experiment [5] it was 6580 nM; in experiment [6] it was 1490 nM. Further, the 50% effective concentration (EC50) in experiment [7] worked out at 8840 nM.
